Tests used:
Assay type in all cases: biochemical
[1] = tested on: citrated normal human plasma; assay: prothrombin time (PT) haemostasis assay; details: for effect on percentage of PT activity versus plasma having no anticoagulant: anticoagulant added to normal plasma: ferulic acid 0.5%, 1%, 1.5%, heparin 0.1, 0.5, 1 IU/mL, EDTA 0.5, 1, 1.5 mg/mL, FIG. 1-3; for effect on PT assay: summary statement, added to normal plasma, concentration not stated (EDTA: at a certain concentration)
Method: (§1) To assess the effect of different anticoagulants in various haemostasis assays, different plasma compositions were prepared. Use was made of citrated normal human plasma (16 mM of citrate), stored at a temperature of below −70° C. and thawed in a bath at 37° C. HEPES was then added up to a final concentration of 40 mM and the pH was adjusted to between 7.4 and 7.6 using NaOH 1N. Various plasma compositions were prepared. No anticoagulant was added to the first composition, which was used as a control. Increasing concentrations of the anticoagulants being analysed were added to the others: ferulic acid (0.5% , 1% and 1.5%), heparin (0.1 IU/mL, 0.5 IU/mL and 1 IU/mL) and EDTA (0.5 mg/mL, 1 mg/mL, 1.5 mg/mL). Each plasma composition was analysed for the aforementioned PT, aPTT, TT and RT assays in a Q Haemostasis Analyzer (Diagnostic Grifols, Spain) using the reagents DG-PT, DG-APTT Synth, DG-TT L Human and GD-Fibroclotin of Diagnostic Grifols.
FIG. 1-3 show the results obtained in the PT assay with the various anticoagulants and plot the time obtained in the PT assay as a function of the concentration of the anticoagulant present in the plasma. The control (plasma having no anticoagulant) is shown by triangles and the compositions comprising ferulic acid, heparin and EDTA are shown by squares. […] On the other hand, ferulic acid and EDTA added to normal plasma do produce a reduction in the percentage of PT activity.

[2] = tested on: citrated normal human plasma; assay: reptilase time (RT) haemostasis assay; details: for effect on RT assay result versus plasma having no anticoagulant: anticoagulant added to normal plasma: ferulic acid 0.5%, 1%, 1.5%, heparin 0.1, 0.5, 1 IU/mL, EDTA 0.5, 1, 1.5 mg/mL, FIG. 10-12; for effect on RT assay: summary statement, added to normal plasma, concentration not stated (EDTA: at a certain concentration)
Method: as §1
The same plasmas prepared in Example 1 were tested in the RT assay.

[3] = tested on: citrated normal human plasma; assay: activated partial thromboplastin time (aPTT) haemostasis assay; details: summary statement, added to normal plasma; concentration not stated (EDTA: at a certain concentration)
Method: as §1
The same plasmas prepared in Example 1 were tested in the aPTT assay (FIG. 4-6). […] In addition, the prolongation in the result of the assay is proportional to the amount of anticoagulant present in the plasma.

[4] = tested on: citrated normal human plasma; assay: thrombin time (TT) haemostasis assay; details: for effect on TT assay result versus plasma having no anticoagulant: anticoagulant added to normal plasma: ferulic acid 0.5%, 1%, 1.5%, heparin 0.1, 0.5, 1 IU/mL, EDTA 0.5, 1, 1.5 mg/mL, FIG. 7-9
Method: as §1
The same plasmas prepared in Example 1 were tested in the TT assay. FIG. 7-9 show the TT results obtained when testing the prepared plasmas.

Row | Molecule | effect on percentage of PT activity versus plasma having no anticoagulant [1] | effect on PT assay [1] | effect on RT assay result versus plasma having no anticoagulant [2] | effect on RT assay [2] | effect on aPTT assay [3] | effect on TT assay result versus plasma having no anticoagulant [4] | effect on TT assay ([4]; summary statement, added to normal plasma, EDTA at a certain concentration)
1 | heparin | has no effect on the PT assay | does not affect the PT assay, or does so to a lesser extent | does not prolong the RT at any of the concentrations tested | does not prolong the RT assay | prolongs the aPTT assay | do produce an abnormal TT | 
2 | O=C(O)CN(CCN(CC(=O)O)CC(=O)O)CC(=O)O [EDTA, ethylenediaminetetraacetic acid] | produce a reduction in the percentage of PT activity that is proportional to the amount of anticoagulant present in the plasma | does not affect the results of PT, aPTT and TT assays, or does so very slightly | do produce an abnormal RT result | can prolong the RT assay | does not affect the results of PT, aPTT and TT assays, or does so very slightly | does not prolong the result of the assay | does not affect the results of PT, aPTT and TT assays, or does so very slightly
3 | COc1cc(/C=C/C(=O)O)ccc1O [ferulic acid] | produce a reduction in the percentage of PT activity that is proportional to the amount of anticoagulant present in the plasma |  | do produce an abnormal RT result |  |  | do produce an abnormal TT | 

Source: patent US20150260740A1, “COMPOSITION FOR USE AS AN ABNORMAL COAGULATION CONTROL PLASMA IN IN VITRO ASSAYS” (GRIFOLS, S.A., priority 2014, published 2015)
